One assay has as its target T1, α4β1 (Homo sapiens, UniProt P05556+P13612).
T1 construct: Ramos Cell Adhesion Assay (α4β1 Mediated Adhesion/VCAM-1); endogenous in cells; host or cells: Ramos cells
Kind of assay: Ramos Cell Adhesion Assay (α4β1 Mediated Adhesion/VCAM-1). The settings on record: Ramos cell adhesion to hVCAM-1; read-out: α4β1 IC50. It counts as cell-based. The method, boiled down:
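Plates coated overnight at 4° C with recombinant hVCAM-1 at 4.0 μg/mL, pH 9.0, then blocked in PBS/1% BSA. Calcein AM-labeled Ramos cells added with compounds and left to adhere 1 h at room temperature; after washing, cells lysed in 1 M Tris pH 8.0/1% SDS.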

A further assay deals with T2, human α4β7 integrin (Homo sapiens, UniProt P13612+P26010).
T2 construct: expressed in transfected cells; host or cells: K562 cells, stably transfected
T2 sequence (P13612 34-1032): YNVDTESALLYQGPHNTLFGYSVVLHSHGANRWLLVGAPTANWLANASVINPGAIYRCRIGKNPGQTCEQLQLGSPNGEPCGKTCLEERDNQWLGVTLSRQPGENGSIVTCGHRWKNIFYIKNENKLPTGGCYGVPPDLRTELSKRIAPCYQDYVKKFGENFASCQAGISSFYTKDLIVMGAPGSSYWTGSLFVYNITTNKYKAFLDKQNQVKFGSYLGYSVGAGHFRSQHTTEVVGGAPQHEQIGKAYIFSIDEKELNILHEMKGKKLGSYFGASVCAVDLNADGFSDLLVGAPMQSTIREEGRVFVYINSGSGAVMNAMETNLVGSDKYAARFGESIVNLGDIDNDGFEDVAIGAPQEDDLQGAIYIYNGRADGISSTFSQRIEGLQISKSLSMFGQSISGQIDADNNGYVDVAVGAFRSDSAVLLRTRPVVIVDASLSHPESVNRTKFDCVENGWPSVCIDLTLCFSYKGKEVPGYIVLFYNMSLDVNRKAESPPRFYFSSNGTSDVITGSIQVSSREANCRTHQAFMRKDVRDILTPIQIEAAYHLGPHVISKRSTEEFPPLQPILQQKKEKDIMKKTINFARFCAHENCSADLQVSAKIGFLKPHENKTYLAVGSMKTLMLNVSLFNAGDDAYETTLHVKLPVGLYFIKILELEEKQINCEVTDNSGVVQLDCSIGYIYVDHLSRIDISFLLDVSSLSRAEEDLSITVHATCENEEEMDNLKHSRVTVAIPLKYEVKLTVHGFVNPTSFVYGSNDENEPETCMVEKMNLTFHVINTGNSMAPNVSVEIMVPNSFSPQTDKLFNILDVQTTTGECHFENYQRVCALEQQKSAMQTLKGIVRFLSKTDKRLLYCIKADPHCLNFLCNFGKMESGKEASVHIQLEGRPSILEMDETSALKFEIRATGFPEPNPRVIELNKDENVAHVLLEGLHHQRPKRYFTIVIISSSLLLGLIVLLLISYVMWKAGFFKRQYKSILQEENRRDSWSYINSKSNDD
T2 sequence (P26010 20-798): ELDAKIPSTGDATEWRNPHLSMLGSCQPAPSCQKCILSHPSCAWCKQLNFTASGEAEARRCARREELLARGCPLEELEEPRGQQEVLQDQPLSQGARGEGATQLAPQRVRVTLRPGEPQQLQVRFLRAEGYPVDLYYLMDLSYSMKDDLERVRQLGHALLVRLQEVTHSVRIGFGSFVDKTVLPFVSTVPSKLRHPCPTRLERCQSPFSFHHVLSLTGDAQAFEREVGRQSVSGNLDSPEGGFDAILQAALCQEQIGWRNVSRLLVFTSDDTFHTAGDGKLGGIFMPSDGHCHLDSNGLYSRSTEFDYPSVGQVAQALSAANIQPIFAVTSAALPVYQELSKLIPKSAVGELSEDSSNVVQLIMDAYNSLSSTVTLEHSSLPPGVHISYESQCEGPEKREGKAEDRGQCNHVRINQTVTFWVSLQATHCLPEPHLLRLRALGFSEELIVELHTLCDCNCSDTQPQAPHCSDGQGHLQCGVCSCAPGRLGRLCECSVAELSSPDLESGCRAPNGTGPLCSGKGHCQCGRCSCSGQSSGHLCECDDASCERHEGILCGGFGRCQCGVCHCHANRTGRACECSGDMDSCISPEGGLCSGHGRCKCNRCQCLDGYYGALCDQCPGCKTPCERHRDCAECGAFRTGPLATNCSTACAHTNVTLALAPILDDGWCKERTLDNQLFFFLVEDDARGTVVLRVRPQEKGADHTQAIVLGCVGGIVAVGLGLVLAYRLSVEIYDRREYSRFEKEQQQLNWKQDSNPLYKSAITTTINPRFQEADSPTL
Kind of assay: α4β7-K562 Cell Adhesion Assay (α4β7 Mediated Adhesion/MAdCAM-1). It counts as cell-based. The settings on record: α4β7-K562 cell adhesion to hMAdCAM-1; read-out: α4β7 IC50. The method, boiled down: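 Anti-FLAG plates coated 1 h at 4° C with FLAG-hMAdCAM-1 in PBS pH 7.4, 1% BSA, 1 mM Mn2+. Stably transfected K562 cells expressing human α4β7, labelled with CFDA-SE, adhered with compound 1 h at room temperature. After four washes, bound cells lysed in 0.1 M NaOH for fluorescence read-out.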

T1 sequence (P05556 21-798, one chain of several): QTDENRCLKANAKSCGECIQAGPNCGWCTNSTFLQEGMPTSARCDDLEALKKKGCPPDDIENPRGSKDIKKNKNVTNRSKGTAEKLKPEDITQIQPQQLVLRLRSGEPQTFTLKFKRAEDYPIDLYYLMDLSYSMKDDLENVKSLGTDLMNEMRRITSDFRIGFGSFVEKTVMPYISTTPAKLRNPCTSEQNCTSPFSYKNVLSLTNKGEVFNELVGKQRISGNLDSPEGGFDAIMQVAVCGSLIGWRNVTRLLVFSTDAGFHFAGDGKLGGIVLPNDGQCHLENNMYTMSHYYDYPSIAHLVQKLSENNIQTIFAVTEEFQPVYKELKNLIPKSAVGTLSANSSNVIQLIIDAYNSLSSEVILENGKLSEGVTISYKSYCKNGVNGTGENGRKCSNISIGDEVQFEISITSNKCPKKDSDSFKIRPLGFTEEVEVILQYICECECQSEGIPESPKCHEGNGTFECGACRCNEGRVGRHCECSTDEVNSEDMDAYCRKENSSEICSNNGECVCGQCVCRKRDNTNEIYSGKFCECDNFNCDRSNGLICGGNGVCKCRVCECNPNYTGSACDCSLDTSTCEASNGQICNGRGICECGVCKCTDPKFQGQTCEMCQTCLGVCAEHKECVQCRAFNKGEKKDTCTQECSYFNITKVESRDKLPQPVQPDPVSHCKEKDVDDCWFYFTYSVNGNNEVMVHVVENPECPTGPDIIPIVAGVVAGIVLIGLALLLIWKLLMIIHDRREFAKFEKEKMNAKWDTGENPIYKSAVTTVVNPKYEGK

As for `COc1cnn(C)c(=O)c1-c1ccc(C[C@H](NC(=O)OCc2cccs2)C(=O)O)cc1` [Cpd 201], the IC50 on α4β1 is above 5000 nM; on human α4β7 integrin it was 1440 nM.
For `COc1cnn(C)c(=O)c1-c1ccc(C[C@H](NC(=O)C2CCN(C(=O)OC(C)(C)C)CC2)C(=O)O)cc1` [Cpd 202], in that order: above 5000 nM and 1480 nM.
For `COc1cnn(C)c(=O)c1-c1ccc(C[C@H](NC(=O)OCc2c(C)cc(C)cc2C)C(=O)O)cc1` [Cpd 203] the same measures were above 5000 nM and 1780 nM.
For `COc1cnn(C)c(=O)c1-c1ccc(C[C@H](NC(=O)OCc2c(Cl)cccc2Cl)C(=O)O)cc1` [Cpd 204] the same measures were above 5000 nM and 1870 nM.
Take `COc1cnn(C)c(=O)c1-c1ccc(C[C@H](NC(=O)c2cnc[nH]2)C(=O)O)cc1` [Cpd 205]: the results for the IC50 on α4β1 and on human α4β7 integrin were above 5000 nM and 2320 nM, respectively.
For `COc1cnn(C)c(=O)c1-c1ccc(C[C@H](NC(=O)CCC(C)(C)C)C(=O)O)cc1` [Cpd 206], in that order: 3300 nM and 2550 nM.
With `COc1cnn(C)c(=O)c1-c1ccc(C[C@H](NC(=O)OC2CCCCC2)C(=O)O)cc1` [Cpd 208], the 50% inhibitory concentration (IC50) at α4β1 is above 5000 nM; on human α4β7 integrin it was 2760 nM.
For `COc1cnn(C)c(=O)c1-c1ccc(C[C@H](NC(=O)O[C@H](C)c2ccccc2)C(=O)O)cc1` [Cpd 209], in that order: above 5000 nM and 3140 nM.
For `COc1cnn(CCN2CCOCC2)c(=O)c1-c1ccc(C[C@H](NC(=O)[C@H](N)C(C)C)C(=O)O)cc1` [Cpd 210] the same measures were above 5000 nM and 4650 nM.
For `COc1cnn(C)c(=O)c1-c1ccc(CC(NC(=O)C(C(C)C)n2c(C)cc(C(=O)c3ccccc3)c2C)C(=O)O)cc1` (stereo not shown) [Cpd 211, 2-[2-(3-Benzoyl-2,5-dimethyl-pyrrol-1-yl)-3-methyl-butyrylamino]-[4-(5-methoxy-2-methyl-3-oxo-2,3-dihydro-pyridazin-4-yl)-phenyl]-propionic acid], in that order: above 5000 nM and 529 nM.
Turning to `COc1cnn(CCO)c(=O)c1-c1ccc(C[C@H](NC(=O)OC(C)(C)C)C(=O)OCCO)cc1` [Cpd 212], the IC50 at α4β1 and at human α4β7 integrin was above 5000 nM throughout.
On to `COc1cnn(C)c(=O)c1-c1ccc(CC(NC(=O)C(C(C)C)n2c(C)ccc2C)C(=O)O)cc1` (stereo not shown) [Cpd 213], for which the figures for the IC50 on α4β1 and at human α4β7 integrin were 2880 nM and 264 nM, respectively.
For `COc1cnn(C)c(=O)c1-c1ccc(CC(NC(=O)C(C(C)C)n2c(C)ccc2C)C(=O)O)cc1` (stereo not shown) [Cpd 214] the same measures were 1070 nM and 23 nM.
As to `COc1cnn(C)c(=O)c1-c1ccc(CC(NC(=O)C(C(C)C)n2c(C)ccc2C)C(=O)O)cc1` (stereo not shown) [Cpd 215], the IC50 on α4β1 is above 5000 nM; at human α4β7 integrin, 305 nM.
For `COc1cnn(C)c(=O)c1-c1ccc(C[C@H](NC(=O)C2(O)CC2)C(=O)O)cc1` [Cpd 217], the IC50 was above 5000 nM at α4β1 and 640 nM on human α4β7 integrin.
For `COc1cnn(C)c(=O)c1-c1ccc(C[C@H](NC(=O)C(C)(C)NC(C)C)C(=O)O)cc1` [Cpd 218] the same measures were above 5000 nM and 239 nM.
For `COc1cnn(C)c(=O)c1-c1ccc(C[C@H](NC(=O)NC2CCCCC2)C(=O)O)cc1` [Cpd 219] the same measures were above 5000 nM and 852 nM.
For `COc1cnn(C)c(=O)c1-c1ccc(C[C@H](NC(=O)C(C)(C)NC2CCC3(CC2)OCCO3)C(=O)O)cc1` [Cpd 220] the same measures were above 5000 nM and 263 nM.
For the compound `CNC(C)(C)C(=O)N[C@@H](Cc1ccc(-c2c(OC)cnn(C)c2=O)cc1)C(=O)O` [Cpd 221], the IC50 on α4β1 was above 5000 nM; on human α4β7 integrin, 380 nM.
For `COc1cnn(C)c(=O)c1-c1ccc(C[C@H](NC(=O)C2(NC(=O)OC(C)(C)C)CCCCC2)C(=O)O)cc1` [Cpd 222] the same measures were above 5000 nM and 401 nM.
For `COc1cnn(C)c(=O)c1-c1ccc(C[C@H](NC(=O)C2(NC(=O)OC(C)(C)C)CCCC2)C(=O)O)cc1` [Cpd 223], in that order: above 5000 nM and 115 nM.
Regarding `COc1cnn(C)c(=O)c1-c1ccc(C[C@H](NC(=O)C2(NC3CCC4(CC3)OCCO4)CC2)C(=O)O)cc1` [Cpd 224], the IC50 on α4β1 was above 5000 nM; at human α4β7 integrin, 14 nM.
As for `COc1cnn(C)c(=O)c1-c1ccc(C[C@H](NC(=O)C2(NC3CCCC3)CC2)C(=O)O)cc1` [Cpd 225], the IC50 on α4β1 was found to be 472 nM; on human α4β7 integrin it was 13 nM.
For `COc1cnn(C)c(=O)c1-c1ccc(C[C@H](NC(=O)C2(NC(C)=O)CC2)C(=O)O)cc1` [Cpd 227] the same measures were above 5000 nM and 219 nM.
For `COc1cnn(CC(C)=O)c(=O)c1-c1ccc(C[C@H](NC(=O)c2c(Cl)cccc2Cl)C(=O)O)cc1` [Cpd 228], in that order: 535 nM and 6 nM.
For `COc1cnn(C)c(=O)c1-c1ccc(C[C@H](NC(=O)C(C)(C)NC(N)=O)C(=O)O)cc1` [Cpd 229], in that order: above 5000 nM and 89 nM.

The values above are taken from patent publication US20050192279A1, “Pyridazinones as antagonists of alpha4 integrins” (priority 2004, published 2005).
